# Tests used:
# [1] = tested on: TNF-α in Oral Keratinocytes; test: TNF-α ELISA in oral keratinocytes; type: cell-based, human; details: for amount of secreted TNF-α by ELISA: LPS (10 μg/ml), FA (10 μg/ml), 24 hours, p<0.05
# Method: Cell Culture. Normal human oral keratinocytes (NOKSI) and fibroblast (HOF) cells were maintained in Dulbecco […] Eagle's medium (Sigma-Aldrich, St. Louis, MO, USA) supplemented with 10% fetal bovine serum (Atlas Bio-logicals, Fort Collins, CO, USA) and 100 units/mL penicillin and 100 μg/mL streptomycin (LifeTechnologies, Carlsbad, CA, USA). Cells were grown in incubator at 37° C. in a humidified chamber with 5% CO2.
# Drugs treatment in cell culture. The cells were treated alone or with different combination of lipopolysaccharide, cyclosporine, phenytoin, and folic acid. All of them were purchased from Sigma-Aldrich (St. Louis, MO, USA). Each of them were used from 0 μg/ml to 40 μg/ml and the optimum concentration were found 10 μg/ml.
# Enzyme linked immunosorbent assay (ELISA). ELISA was conducted with a mouse TNF-α ELISA Kit (PeproTech, USA) and TGF-β Emax ImmunoAssay System (Promega USA) to detect the TNF-α and TGF-β respectively. After normalization of the total cells or tissue protein lysates, 20 μg protein of each sample was used for the detection of TNF-α or TGF-β. ELISA was performed according to the manufacturers' instructions. For TNF-α, 100 ng/100 μl of capture antibody was added to each well of 96 well assay plate and incubated for overnight at room temperature. […] Optical absorbing values were read at 405 and 450 nm and corrected by 650 nm. […] TMB One Solution was added for 15 minutes and the reaction were stopped using 100 μl of 1N hydrochloric acid and the absorbance at 450 nm were recorded on a plate reader. Data were analyzed using excel software. […]
# Folic acid reduces TNF-α oral keratinocytes. […] After adhesion, the cells were treated with different concentration of folic acid (2.5 μg/ml-40 μg/ml) and amount of TNF-α was measured by ELISA (p<0.05).
# Folic acid reduces TNF-α in Oral Keratinocytes on LPS stimulation. […] The amount of secreted TNF-α was determined by ELISA (p<0.05).
# Oral Keratinocytes were seeded and treated with LPS (10 μg/ml), Phe (10 μg/ml), and FA (10 μg/ml) for 24 hours. The amount of secreted TNF-α was determined by ELISA. […]
# [2] = tested on: TLR4; test: FACS of surface TLR4 on oral keratinocytes; type: cell-based, human; details: LPS (10 μg/ml), Phe (10 μg/ml), different concentration of folic acid, 24 hours
# Method: Flow cytometry. NOKSI cells were seeded in 100 mm plates with a density of 1×10^6 cells per plate. Cells were treated with drugs, LPS, and folic acid alone or in combination. After NOKSI were detached using Corning Cell Lifter (Corning) and 10 mM EDTA in PBS, the cells were washed with FACS buffer (PBS containing 1% BSA [Sigma] and 2 mM EDTA). Cells were stained by immunofluorescence for CD282 (TLR2) and CD284 (TLR4). Fluorescent labeled antibodies at a dilution of 1:1000 in staining buffer with 2% FBS in PBS were added and incubated for 30 min in dark on ice. Cells were centrifuged and washed thrice in staining buffer and passed through a 70 μm cell strainer before data acquisition. Data analysis was performed using FlowJo (TreeStar, Ashland, OR, USA). All incubations were performed on ice.
# Oral Keratinocytes Cells were treated with only LPS (10 μg/ml) for 24 hours. […] Cells were treated with LPS (10 μg/ml) and Phe (10 μg/ml) for 24 hours. […] Cells were treated with LPS (10 μg/ml), Phe (10 μg/ml), and FA ([…]) for 24 hours. […] FIG. 16.
structure (smiles),measurement,setting,value
Nc1nc2ncc(CNc3ccc(C(=O)N[C@@H](CCC(=O)O)C(=O)O)cc3)nc2c(=O)[nH]1 [folic acid],amount of secreted TNF-α by ELISA,[1]; CSA (10 μg/ml),reduces TNF-α
same,amount of secreted TNF-α by ELISA,[1]; Phe (10 μg/ml),inhibits Phenytoin-induced TNF-α
same,amount of TNF-α by ELISA,"[1]; folic acid […]-40 μg/ml alone, p<0.05 vs non-treated",reduces TNF-α
same,TLR4 receptor on the cell surface,[2],do not alter
